Test results reported in patent US20090304756A1, “Method for the Encapsulation and Controlled Release of Poorly Water-Soluble (Hyprophobic) Liquid and Solid Active Ingredients” (priority 2005, published 2009).

How the values were obtained:
[1] = Amount of imidacloprid in particles, release into excess methanol with UV/vis analysis of supernatant; format: physicochemical; details: silica templates 5 μm, pore 6 nm, PSS/PAH coated; released in large excess of methanol
Procedure: 25 mg of the somewhat water-soluble active ingredient imidacloprid were dissolved in 3 ml of acetone, and 100 mg of spherical, porous silica templates (diameter 5 μm, pore size 6 nm) were added. After incubation for 30 min, water was added stepwise until the solution reached saturation of imidacloprid, evident from further considerable cloudiness. The supernatant was centrifuged off and the particles were suspended with 1% SDS solution. In this connection, here and in all of the following washing and coating solutions, imidacloprid saturated solutions were used in order to prevent a dissolving out from the particles. After the coating with PSS and PAH (analogously to Example 1), separate particles filled with 15% m/m (mass of imidacloprid/mass of particles) were obtained (FIG. 3). The amount of imidacloprid was determined by releasing the active ingredient in a large excess in methanol with subsequent UV/vis spectroscopic analysis of the supernatant.

[2] = Perylene concentration in particle interior by confocal fluorescence microscopy; format: physicochemical; details: C18 silica templates 5 μm, pore 6 nm, PAH/PSS LbL coated; self-quenching may feign lower concentration
Procedure: 12.5 mg of the model dye perylene were dissolved in 6 ml of chloroform. A suspension of 100 mg of spherical, porous silica templates (diameter 5 μm, pore size 6 nm) in 1 ml of chloroform was added thereto. The surface of the templates is hydrophobically modified with C18 alkyl chains (RP 18, chromatography material). The solvent was evaporated at 40° C. in a drying cabinet with stirring. The powder which remained was resuspended in water with the help of 1% sodium dodecyl sulphate (SDS). […] Besides the fluorescence of the perylene in the particles, a few larger (and lighter) crystals of the pure dye can also be seen which no longer arise when using smaller fill amounts. The SDS solution was centrifuged off and the particles were incubated with 500 μl of a solution of 1 g/l Cy5 labelled poly(allylamine hydrochloride) (PAH-Cy5, MW 70000 g/mol), pH 6.5 and 0.5 M NaCl for 20 min with brief application of ultrasound. After washing the particles three times with water, 500 μl of a solution of 1 g/l of poly(sodium 4-styrenesulphonate) (PSS, MW 70000 g/mol) in 0.5 M NaCl with pH 6.1 are added. […]
The concentration of the perylene in the interior of the particles was determined via the fluorescence by confocal microscopy by reference to comparison solutions. […]

| Structure (SMILES) | filling (mass of imidacloprid/mass of particles) [1] | concentration of perylene in the interior of the particles [2] |
| --- | --- | --- |
| O=[N+]([O-])NC1=NCCN1Cc1ccc(Cl)nc1 [imidacloprid] | 15 % m/m |  |
| c1cc2cccc3c4cccc5cccc(c(c1)c23)c54 [perylene] |  | 8.5 mg of perylene per 100 mg of particles |
